Reference: ChEMBL document CHEMBL4706653, “Ultra-short lipopeptides against gram-positive bacteria while alleviating antimicrobial resistance” (Eur J Med Chem, 2021)
≈ marks a conversion by molar mass, not a printed value. Calls of active or inactive are those of the source. The calls are words filed in the database; no cut-off is given here. Residues, ends and D or L forms follow the SMILES beside them. *: point of attachment. Myristoyl = CCCCCCCCCCCCCC(=O)*; Lauroyl = CCCCCCCCCCCC(=O)*

Assays:
Cell membrane [1] = experiment: Induction of membrane disruption in Staphylococcus aureus ATCC 25923 assessed as PI-positive cells at 4 times MIC measured after 2 hrs by propidium iodide staining based flow cytometry relative to control
Cell membrane [2] = experiment: Induction of membrane disruption in Staphylococcus aureus ATCC 25923 assessed as increase in non-uniform cell debris level at 4 times MIC measured after 2 to 4 hrs by SEM analysis; format: subcellular; settings: time 2-4 hrs
Staphylococcus aureus [3] = experiment: Antimicrobial activity against Staphylococcus aureus ATCC 25923 after 18 hrs in presence of NH4Cl by broth microdilution method; format: functional
[4] = test system: Staphylococcus epidermidis; experiment: Antimicrobial activity against ciprofloxacin-resistant Staphylococcus epidermidis ATCC 12228 after 18 hrs in presence of polymyxin B by checkerboard assay; format: functional, organism-based
Staphylococcus aureus [5] = experiment: Potentiation of ciprofloxacin-induced antimicrobial activity against ciprofloxacin-resistant Staphylococcus aureus ATCC 25923 assessed as change in ciprofloxacin MIC at 2 uM after 18 hrs by broth microdilution method relative to ciprofloxacin MIC; format: functional
Staphylococcus aureus [6] = experiment: Antibiofilm activity against Staphylococcus aureus ATCC 25923 assessed as reduction in biofilm thickness after 24 hrs using LIVE/LEAD (SYTO-9/PI) staining by confocal laser scanning microscopy based 3D image analysis; format: functional, organism-based; settings: dose 4-8 µM
Staphylococcus aureus [7] = experiment: Antimicrobial activity against Staphylococcus aureus ATCC 25923 after 18 hrs in presence of 10% serum by broth microdilution method; format: functional
Staphylococcus aureus [8] = experiment: Antibiofilm activity against ciprofloxacin-resistant Staphylococcus aureus ATCC 25923 at 0.5 to 8 uM after 24 hrs in presence of ciprofloxacin by checkerboard assay; format: functional, organism-based; settings: dose 0.5-8 µM
[9] = test system: Staphylococcus epidermidis; experiment: Antimicrobial activity against ciprofloxacin-resistant Staphylococcus epidermidis ATCC 12228 at 0.5 to 8 uM measured after 18 hrs in presence of ciprofloxacin by checkerboard assay; format: functional, organism-based; settings: dose 0.5-8 µM
[10] = test system: Staphylococcus epidermidis; experiment: Antimicrobial activity against ciprofloxacin-resistant Staphylococcus epidermidis ATCC 12228 after 18 hrs by broth microdilution method; format: functional, organism-based
Staphylococcus aureus [11] = experiment: Antimicrobial activity against ciprofloxacin-resistant Staphylococcus aureus ATCC 25923 at 0.5 times MIC after 15 passages by broth microdilution method; format: functional, organism-based
Staphylococcus aureus [12] = experiment: Potentiation of ciprofloxacin-induced antimicrobial activity against methicillin-resistant Staphylococcus aureus 75 assessed as change in ciprofloxacin MIC at 1 uM after 18 hrs by broth microdilution method relative to ciprofloxacin MIC; format: functional
Staphylococcus aureus [13] = experiment: Antimicrobial activity against methicillin-resistant Staphylococcus aureus 75 at 0.5 to 8 uM measured after 18 hrs in presence of ciprofloxacin by checkerboard assay; format: functional, organism-based; settings: dose 0.5-8 µM
Staphylococcus aureus [14] = experiment: Potentiation of ciprofloxacin-induced antimicrobial activity against ciprofloxacin-resistant Staphylococcus aureus ATCC 25923 at 1 uM after 18 hrs by broth microdilution method; format: functional, organism-based
Staphylococcus aureus [15] = experiment: Antimicrobial activity against Staphylococcus aureus ATCC 29213 after 18 hrs by broth microdilution method; format: functional
Cell membrane [16] = experiment: Induction of membrane disruption in Staphylococcus aureus ATCC 25923 measured after 2 hrs by propidium iodide staining based confocal laser scanning microscopic analysis; format: subcellular
[17] = test system: Staphylococcus epidermidis; experiment: Potentiation of ciprofloxacin-induced antimicrobial activity against Staphylococcus epidermidis ATCC 12228 at 0.5 times MIC after 15 passages by broth microdilution method; format: functional, organism-based
Staphylococcus aureus [18] = experiment: Antimicrobial activity against Staphylococcus aureus ATCC 25923 after 18 hrs in presence of MgCl2 by broth microdilution method; format: functional
Staphylococcus aureus [19] = experiment: Antimicrobial activity against ciprofloxacin-treated persistent form of Staphylococcus aureus ATCC 25923 assessed as bacterial killing at 8 times MIC preincubated up to 48 hrs followed by compound washout and subsequent replating on MHB agar by colony counting method; format: functional, organism-based; settings: time hrs <=48
Staphylococcus aureus [20] = experiment: Antibiofilm activity against Staphylococcus aureus ATCC 25923 preformed biofilm assessed as preformed biofilm thickness at 64 uM after 24 hrs using LIVE/LEAD (SYTO-9/PI) staining by confocal laser scanning microscopy based 3D image analysis (reference value: 56 micrometer); format: functional
Staphylococcus aureus [21] = experiment: Antimicrobial activity against Staphylococcus aureus ATCC 25923 after 18 hrs in presence of ZnCl2 by broth microdilution method; format: functional
Staphylococcus aureus [22] = experiment: Antimicrobial activity against ciprofloxacin-resistant Staphylococcus aureus ATCC 25923 after 18 hrs by broth microdilution method; format: functional, organism-based
Staphylococcus aureus [23] = experiment: Potentiation of ciprofloxacin-induced antimicrobial activity against Staphylococcus aureus ATCC 25923 at 0.5 times MIC after 15 passages by broth microdilution method; format: functional, organism-based
Staphylococcus aureus [24] = experiment: Antimicrobial activity against methicillin-resistant Staphylococcus aureus 113 measured after 18 hrs in presence of polymyxin B by checkerboard assay; format: functional, organism-based
Staphylococcus aureus [25] = experiment: Antimicrobial activity against Staphylococcus aureus ATCC 25923 after 18 hrs in presence of KCl by broth microdilution method; format: functional
Staphylococcus aureus [26] = experiment: Antimicrobial activity against Staphylococcus aureus ATCC 25923 after 18 hrs in presence of FeCl3 by broth microdilution method; format: functional
Cell membrane [27] = experiment: Induction of membrane disruption in Staphylococcus aureus ATCC 25923 assessed as irregular atrophy at 2 to 4 times MIC measured after 2 to 4 hrs by SEM analysis; format: subcellular; settings: time 2-4 hrs
Staphylococcus aureus [28] = experiment: Antimicrobial activity against Staphylococcus aureus ATCC 25923 after 18 hrs by broth microdilution method; format: functional
Lipopolysaccharide (LPS) = experiment: Binding affinity to LPS (unknown origin) assessed as bacterial killing at 2 times MIC preincubated for 1 hr followed by Staphylococcus aureus ATCC 25923 addition and measured after 2 hrs by colony counting method; settings: time 3.0 hrs
Staphylococcus aureus [29] = experiment: Induction of nucleic acid leakage in Staphylococcus aureus ATCC 25923 at 4 times MIC; format: functional
[30] = test system: Staphylococcus epidermidis; experiment: Potentiation of ciprofloxacin-induced antimicrobial activity against ciprofloxacin-resistant Staphylococcus epidermidis ATCC 12228 at 1 uM after 18 hrs by broth microdilution method; format: functional, organism-based
Staphylococcus aureus [31] = experiment: Potentiation of ciprofloxacin-induced antimicrobial activity against ciprofloxacin-resistant Staphylococcus aureus ATCC 25923 assessed as change in ciprofloxacin MIC at 4 uM after 18 hrs by broth microdilution method relative to ciprofloxacin MIC; format: functional
Staphylococcus aureus [32] = experiment: Antimicrobial activity against Staphylococcus aureus ATCC 25923 after 18 hrs in presence of 5% serum by broth microdilution method; format: functional
Cell membrane [33] = experiment: Induction of membrane disruption in Staphylococcus aureus ATCC 25923 assessed as increase in cell content leakage at 4 times MIC measured after 2 to 4 hrs by SEM analysis; format: subcellular; settings: time 2-4 hrs
Staphylococcus aureus [34] = experiment: Antimicrobial activity against methicillin-resistant Staphylococcus aureus 75 measured after 18 hrs in presence of polymyxin B by checkerboard assay; format: functional, organism-based
Bacillus subtilis = experiment: Antimicrobial activity against Bacillus subtilis ATCC 23857 after 18 hrs by broth microdilution method; format: functional
[35] = test system: Staphylococcus epidermidis; experiment: Potentiation of ciprofloxacin-induced antimicrobial activity against ciprofloxacin-resistant Staphylococcus epidermidis ATCC 12228 assessed as ciprofloxacin MIC at 0.5 times MIC after 15 passages by broth microdilution method; format: functional
Staphylococcus aureus [36] = experiment: Antibiofilm activity against Staphylococcus aureus ATCC 25923 assessed as biofilm thickness at 4 uM after 24 hrs using LIVE/LEAD (SYTO-9/PI) staining by confocal laser scanning microscopy based 3D image analysis (reference value: 55 micrometer); format: functional

Structure (SMILES)	Activity (Cell membrane [1])	Activity (Cell membrane [2])	MIC (Staphylococcus aureus [3])	Activity [4]	fold change (FC) (Staphylococcus aureus [5])	Activity (Staphylococcus aureus [6])	MIC (Staphylococcus aureus [7])	Activity (Staphylococcus aureus [8])	Activity [9]	Activity [10]	Activity (Staphylococcus aureus [11])	fold change (FC) (Staphylococcus aureus [12])	Activity (Staphylococcus aureus [13])	Activity (Staphylococcus aureus [14])	MIC (Staphylococcus aureus [15])	Activity (Cell membrane [16])	Activity [17]	MIC (Staphylococcus aureus [18])	Activity (Staphylococcus aureus [19])	Activity (Staphylococcus aureus [20])	also measured
CCCCCCCCCCCC(=O)N[C@@H](CCCNC(=N)N)C(=O)N[C@@H](CCCNC(=N)N)C(=O)N[C@@H](Cc1c[nH]c2ccccc12)C(N)=O (Lauroyl-Arg-Arg-Trp-NH2)	Active	Active	4 µM	Active	2	Dose-dependent effect	64 µM	Active	Active	Active	Active	2	Active	inactive	4 µM (≈ 2.79 µg/mL)	Dose-dependent effect	Active	8 µM	Active	40 um	MIC (Staphylococcus aureus [21]): 8 µM; Activity (Staphylococcus aureus [22]): Active; Activity (Staphylococcus aureus [23]): Active; Activity (Staphylococcus aureus [24]): Active; MIC (Staphylococcus aureus [25]): 8 µM; MIC (Staphylococcus aureus [26]): 4 µM; Activity (Cell membrane [27]): Active; MIC (Staphylococcus aureus [28]): 4 µM (≈ 2.79 µg/mL); Activity (Lipopolysaccharide (LPS)): Active; Activity (Staphylococcus aureus [29]): inactive; Activity [30]: inactive; fold change (FC) (Staphylococcus aureus [31]): 2; MIC (Staphylococcus aureus [32]): 64 µM; Activity (Cell membrane [33]): Active; Activity (Staphylococcus aureus [34]): Active; MIC (Bacillus subtilis): 4 µM (≈ 2.79 µg/mL); MIC [35]: 8 µM; Activity (Staphylococcus aureus [36]): 24 um
CCCCCCCCCCCCCC(=O)N[C@@H](CCCNC(=N)N)C(=O)N[C@@H](Cc1c[nH]c2ccccc12)C(=O)N[C@@H](Cc1c[nH]c2ccccc12)C(N)=O (Myristoyl-Arg-Trp-Trp-NH2)	88.9%	Active	4 µM	Active	2	Dose-dependent effect	16 µM	Active	Active	Active	Active	2	Active	inactive	8 µM (≈ 6.05 µg/mL)	Dose-dependent effect	Active	4 µM	Active	24 um	MIC (Staphylococcus aureus [21]): 8 µM; Activity (Staphylococcus aureus [22]): Active; Activity (Staphylococcus aureus [23]): Active; Activity (Staphylococcus aureus [24]): Active; MIC (Staphylococcus aureus [25]): 8 µM; MIC (Staphylococcus aureus [26]): 8 µM; Activity (Cell membrane [27]): Active; MIC (Staphylococcus aureus [28]): 8 µM (≈ 6.05 µg/mL); Activity (Lipopolysaccharide (LPS)): Active; Activity (Staphylococcus aureus [29]): inactive; Activity [30]: inactive; fold change (FC) (Staphylococcus aureus [31]): 2; MIC (Staphylococcus aureus [32]): 16 µM; Activity (Cell membrane [33]): Active; Activity (Staphylococcus aureus [34]): Active; MIC (Bacillus subtilis): 4 µM (≈ 3.02 µg/mL); MIC [35]: 8 µM; Activity (Staphylococcus aureus [36]): 30 um
